# Patent US20050026845A1, “Pharmaceutical/cosmetic compositions comprising the lysine-D-proline-valine tripeptide” (priority 1995, published 2005)
# Non-standard residues stand in square brackets, D forms with d. Residues, ends and D or L forms follow the SMILES beside them.
# Assays:
# interleukin-1α = test: Production of interleukin-1α in the supernatant of plucked hairs (ELISA); type: cell-based, human; conditions: 20 hours; for % of inhibition: IL-1α in supernatant; for IL-1α: plucked hairs from inflammatory alopecia, control 21.8 pg/ml
# Procedure: Dose-response activity of the Ac-LPV-NH2* tripeptide with respect to the production of interleukin-1α in the supernatant of plucked hairs emanating from a patient afflicted with inflammatory alopecia.
# Plucked hairs were removed from the region of the vertex of a volunteer suffering from inflammatory alopecia. They were placed in a Williams' survival medium E (marketed by Gibco BRL) containing penicillin G (100 units/ml), streptomycin S (100 μg/ml) and amphotericin (250 ng/ml), in the presence or in the absence (control) of the Ac-LPV-NH2* tripeptide, synthesized to order by Neosystem S.A. (Strasbourg), at the doses indicated. After incubating for 20 hours, the culture supernatants were collected in a tube and then centrifuged for 5 minutes at 14,000 revolutions/minute (Eppendorff centrifuge, model 5415C). The supernatants were then collected in a clean tube and placed at 4° C.
# The interleukin-1α concentration was then evaluated with respect to 100 μl of supernatant by means of a Biotrak ELISA kit marketed by Amersham, according to the manufacturer's instructions.
# [1] = test system: type-1 IL-1 receptor (IL-1R1); test: Expression of type-1 IL-1 receptor mRNA in plucked hairs (RT-PCR, relative to GAPDH), 3 h 30 min; type: cell-based, human; conditions: treated batch vs control batch (100%), dose not given
# Procedure: (§1) Inhibition of the expression of the messenger RNAs of proinflammatory and inflammatory cytokines in response to the Ac-LPV-NH2* tripeptide.
# (§2) Ten plucked hairs were removed from the region of the vertex of a volunteer suffering from inflammatory alopecia. These were placed in a Williams' survival medium E (marketed by Gibco BRL) containing penicillin G (100 units/ml), streptomycin S (100 μg/ml) and amphotericin (250 ng/ml), in the presence (treated batch) or in the absence (control) of the Ac-LPV-NH2* tripeptide, synthesized to order by Neosystem S.A., (Strasbourg).
# (§3) After incubating for 3 h, 30 min, the messenger RNAs corresponding to these two batches of hair were purified from a “quick prep mRNA purification kit” marketed by Pharmacia. DNAs complementary to these mRNAs were then prepared by means of a reverse transcription kit marketed by Pharmacia, the manufacturer's instructions being followed, and then subjected to a polymerization chain reaction (PCR) stage by using primers specific for the mRNAs of glyceraldehyde-3-phosphate dehydrogenase (GAPDH), of IL-1α, of the type-1 IL-1 receptor and of the type-2 IL-1 receptor. The amounts of amplified DNA were then evaluated by electrophoresis on 1.5% agarose gel in the presence of ethidium bromide. […]
# catagenic papilla cells = test: Inhibition of IL-1α-induced production of PGE2 by catagenic papilla cells cultured in vitro; type: cell-based; conditions: 10 μM tripeptide; for PGE2: IL-1α 10 ng/ml, control 9.2, IL-1α alone 100.2; for % inhibition: PGE2 induced by IL-1α 10 ng/ml
# Procedure: Measurement of the inhibition of the production of PGE2 by catagenic papilla cells cultured in vitro.
# The cells (1,000 per well), at the 24th passage, were incubated in 199 medium marketed by Gibco in the presence of 1% foetal calf serum and of antibiotics. 20 hours later, the medium was replaced by an identical medium, but containing the tripeptides to be evaluated at a final concentration of 10 μM. 5 hours later, interleukin-1α was added at a final concentration of 10 ng/ml. 20 hours later, the PGE2 levels produced by the cultured papilla cells were evaluated by means of a Biotrack kit marketed by Amersham, the manufacturer's instructions being followed. This method thus made it possible to evaluate the inhibiting effect of these tripeptides on the production of PGE2 induced by a proinflammatory cytokine: interleukin-1α.
# IL-1α [2] = test: Expression of IL-1α mRNA in plucked hairs (RT-PCR, relative to GAPDH), 3 h 30 min; type: cell-based, human; conditions: treated batch vs control batch (100%), dose not given
# Procedure: as §1, §2, §3
# IL-1α [3] = test: Expression of the mRNAs of IL-1α from the IL-1α/GAPDH ratio, plucked hairs of two donors, 20 hours; type: cell-based, human
# Procedure: Inhibiting effect of Ac-LPV-NH2* on the expression of the mRNAs of IL-1α, calculated from the IL-1α/GAPDH ratio.
# 5 hairs were plucked from two different donors and were then incubated for 20 hours at 37° C. (5% CO2) in Williams' medium E supplemented with antibiotics and with glutamine and in the presence of Ac-LPV-NH2* at the concentrations indicated. A control was carried out in which there was no peptide added.
Structure (SMILES),% of inhibition (interleukin-1α; dose 1 μM) [%],IL-1α (interleukin-1α; dose 1 μM) [pg/mL],% of inhibition (interleukin-1α; dose 10 μM) [%],IL-1α (interleukin-1α; dose 10 μM) [pg/mL],% of expression IL-1R1 [1] [%],PGE2 (catagenic papilla cells) [pg/mL],% inhibition (catagenic papilla cells) [%],% of expression IL-1α (IL-1α [2]) [%],"expression of the mRNAs of IL-1α, % of the control (IL-1α [3]; donor A, 1 μM) [%]","expression of the mRNAs of IL-1α, % of the control (IL-1α [3]; donor A, 10 μM) [%]","expression of the mRNAs of IL-1α, % of the control (IL-1α [3]; donor B, 0.1 μM) [%]","expression of the mRNAs of IL-1α, % of the control (IL-1α [3]; donor B, 1 μM) [%]","expression of the mRNAs of IL-1α, % of the control (IL-1α [3]; donor B, 10 μM) [%]"
CC(=O)N[C@H](CCCCN)C(=O)N1CCC[C@@H]1C(=O)N[C@@H](C(N)=O)C(C)C [Acetyl-(D) Lys-(D) Pro-(D) Val-NH2] (Ac-[dK]-[dP]-[dV]-NH2),49,11.1,72,6.1,26,28.0,78,0,51,28,53,62,28.7
"CC(=O)N[C@@H](CCCCN)C(=O)N1CCC[C@@H]1C(=O)N[C@H](C(N)=O)C(C)C [Ac-L-(D)P-V-NH2***, Acetyl-(L) Lys-(D) Pro-(L) Val-NH2] (Ac-Lys-[dP]-Val-NH2)",–,–,–,–,–,24.6,75,–,–,–,–,–,–
"CC(=O)N[C@@H](CCCCN)C(=O)N1CCC[C@H]1C(=O)N[C@H](C(N)=O)C(C)C [Acetyl-(L) Lys-(L) Pro-(L) Val-NH2, reference compound] (Ac-Lys-Pro-Val-NH2)",–,–,–,–,–,10.0,90,–,–,–,–,–,–
